{"source": "patent US8735353B2", "about": "“Polypeptides and uses thereof” (priority 2009, dated 2014)", "key": {"RAW 264.7 macrophages": {"test_system": "RAW 264.7 macrophages", "test": "LPS effects on macrophages in vitro, NO production (Griess reaction)", "assay_type": "cell-based, mouse", "details": "for effect on NO production of LPS-stimulated macrophages: RAW 264.7, LPS", "protocol": "3.5×10^5 cells were seeded in 96-well tissue culture plates (Nunc, 167008) in phenol red-free DMEM (Gibco) supplemented with 10% FBS and antibiotics. Following 6 hours of incubation to permit adherence, cells were stimulated with 100 or 10 ng/mL E. coli (0111:B4) or P. aeruginosa LPS (Sigma), with and without peptide of various doses. The levels of NO in culture supernatants were determined after 24 hours from stimulation using the Griess reaction [38]. Briefly, nitrite, a stable product of NO degradation, was measured by mixing 50 μl of culture supernatants with the same volume of Griess reagent (Sigma, G4410) and reading absorbance at 550 nm after 15 min. Phenol-red free DMEM with FBS and antibiotics were used as a blank. A standard curve was prepared using 0-80 μM sodium nitrite solutions in ddH2O.\n3.5×10^5 RAW 264.7 cells were seeded in 96-well tissue culture plates (Nunc no. 167008) in phenol red-free DMEM (Gibco) supplemented with 10% FBS containing 1% Anti-Anti (Invitrogen). […] The level of NO in culture supernatants was determined after a period of 20 hours using the Griess reaction (27)ref. Briefly, Nitrite, a stable product of NO degradation, was measured by mixing 50 μl of culture supernatants with the same volume of Griess reagent (Sigma, G4410), and reading absorbance at 550 nm after 15 min. Phenol-red free DMEM with FBS and antibiotics were used as a blank. A standard curve was prepared using sodium nitrite at 0-80 μM in ddH2O.\n3.5×10^5 cells were seeded in 96-well tissue culture plates (Nunc, 167008) in phenol red-free DMEM (Gibco) supplemented with 10% FBS and antibiotics. […] The levels of NO in culture supernatants were determined after 24 hours from stimulation using the Griess reaction [25]. Briefly, nitrite, a stable product of NO degradation, was measured by mixing 50 μl of culture supernatants with the same volume of Griess reagent (Sigma, G4410) and reading absorbance at 550 nm after 15 min. […]"}, "RAW 264.7 cells": {"test_system": "RAW 264.7 cells", "test": "Cytokine release from LPS-stimulated RAW 264.7 cells", "assay_type": "cell-based, mouse", "details": "10 ng/ml E. coli LPS", "procedure": "RAW 264.7 cells were stimulated with 10 ng/ml E. coli LPS and cytokines were analysed in the cell supernatants.\n(§1) The cytokines IL-6, IL-10, MCP-1, INF-γ, and TNF-α were measured in cell culture supernatants from RAW264.7 cells and plasma from mice injected with LPS or P. aeruginosa (with or without peptide treatment) using the Cytometric bead array; Mouse Inflammation Kit (Becton Dickinson AB) according to the manufacturer's instructions. All plasma samples were stored at −20° C. before the analysis."}, "[1]": {"test_system": "human peripheral blood monocytes", "test": "TNF-α assay in human peripheral blood monocytes", "assay_type": "cell-based", "details": "10 ng/ml E. coli LPS", "procedure": "Cell supernatants were collected and stored at −20° C. […] Plasma was obtained by centrifuging at 400 g, 10 min and stored at −20° C. The TNF-α level was measured using a human TNF-Elisa Kit (Invitrogen)."}, "human citrate plasma": {"test_system": "human citrate plasma", "test": "Clotting assays in plasma (aPTT, PT, TCT)", "assay_type": "biochemical", "details": "20 μM peptide", "procedure": "(§2) All clotting times were analyzed using a coagulometer (Amelung, Lemgo, Germany). […] (PT-thromboplastin reagent (Trinity Biotech), TCT: Thrombin reagent (Technoclone)). To record the activated partial thromboplastin time (aPTT), 100 μl of a kaolin-containing solution (Technoclone) was add to the plasma-peptide mix and incubated for 200 sec before clot formation was initiated by adding 100 μl of 30 mM fresh CaCl2 solution. […] Cells were washed and resuspended in 100 μl PBS. Hundred microliter of fresh human citrate plasma were reconstituted with 100 μl of fresh 30 mM CaCl2 solution and pre-warmed for 60 sec. The clot formation was started by adding the hPBMNC. The same procedure was used to determine clotting times for whole blood."}, "human monocytes": {"test_system": "human monocytes", "test": "Clotting time, LPS-stimulated human monocytes added to citrate plasma", "assay_type": "cell-based", "details": "concentrations similar to physiological thrombin (1.5 μM)", "procedure": "Whole blood was incubated with 10 ng/ml E. coli LPS+/−the indicated concentrations of peptide. The clotting reaction in human citrated plasma was initiated by adding the blood cells. […] Human monocytes were stimulated with LPS and/or peptides, and the clotting times were determined by adding the treated cells to human citrate plasma supplemented with CaCl2\nas §2"}, "LPS-induced shock": {"test_system": "LPS-induced shock", "test": "LPS model in vivo, E. coli LPS (Example B)", "set-up": "species or system C57BL/6 mice", "procedure": "Male C57BL/6 mice (8 weeks, 21+/−5 g), were injected intraperitoneally with 18 mg E. coli 0111:B4 LPS or 36 mg P. aeruginosa LPS (Sigma) per kg of body weight. […] Survival and status was followed during seven days. For SEM and histochemistry, mice were sacrificed 20 h after LPS challenge, and lungs, liver, kidney, and spleen were removed and fixed. For determination of cytokine levels in mouse plasma, animals were sacrificed 8 h and 20 h after LPS injection. The blood was collected immediately by cardiac puncture. These experiments were approved by the Laboratory Animal Ethics Committee of Malmö/Lund.\nMouse blood (anti-coagulated with EDTA) was taken by cardiac puncture and analysed with the VetScan HM5 System (TRIOLAB). The number of white blood cells, percentages of lymphocytes, neutrophils, monocytes and platelets were determined.\nas §1\nFor scanning electron microscopy lungs were taken 20 h after LPS injection. […] Specimens were washed with cacodylate buffer, and dehydrated with an ascending ethanol series from 50% (vv) to absolute ethanol. The specimens were then subjected to critical-point drying in carbon dioxide, with absolute ethanol as intermediate solvent, mounted, on aluminium holders, sputtered with 30 nm palladium/gold and examined in a JEOL JSM-350 scanning electron microscope"}, "E. coli": {"test_system": "E. coli", "test": "Radial diffusion assay (RDA)", "assay_type": "cell-based", "procedure": "Essentially as described earlier, bacteria were grown to mid-logarithmic phase in […] of full-strength (3% w/v) trypticase soy broth (TSB) (Becton-Dickinson). The microorganisms were then washed once with 10 mM Tris, pH 7.4. Subsequently, 4×10^8 cfu were added to 15 ml of the underlay agarose gel, consisting of 0.03% (w/v) TSB, 1% (w/v) low electroendosmosis type (EEO) agarose (Sigma-Aldrich) and 0.02% (v/v) Tween 20 (Sigma-Aldrich). The underlay was poured into a Ø 144 mm petri dish. After agarose solidification, 4 mm-diameter wells were punched and 6 μl peptide solution of required concentration added to each well. Plates were incubated at 37° C. for 3 h to allow peptide diffusion. The underlay gel was then covered with 15 ml of molten overlay (6% TSB and 1% Low-EEO agarose in distilled H2O). Antimicrobial activity of a peptide was visualized as a zone of clearing around each well after 18-24 h of incubation at 37° C.\nEssentially as described earlier bacteria were grown to mid-logarithmic phase in 10 ml of full-strength (3% w/v) trypticase soy broth (TSB) (Becton-Dickinson, Cockeysville, Md.). The microorganisms were then washed once with 10 mM Tris, pH 7.4. […]"}, "E. coli ATCC 25922": {"test_system": "E. coli ATCC 25922", "test": "Viable count assay", "assay_type": "cell-based", "details": "E. coli ATCC 25922, proteins and peptides at 3 and 6 μM", "protocol": "E. coli bacteria were grown to mid-logarithmic phase in Todd-Hewitt (TH) medium. They were then washed and diluted in 10 mM Tris, pH 7.4 containing 5 mM glucose. […] To quantify the bactericidal activity, serial dilutions of the incubation mixtures were plated on TH agar, followed by incubation at 37° C. overnight and the number of colony-forming units was determined. 100% survival was defined as total survival of bacteria in the same buffer and under the same condition in the absence of peptide.\nE. coli ATCC 25922 bacteria were grown to mid-logarithmic phase in Todd-Hewitt (TH) medium. Bacteria were washed and re-suspended in 10 mM Tris, pH 7.4 containing 5 mM glucose. […] Serial dilutions of the incubation mixtures were plated on TH agar, followed by incubation at 37° C. overnight and cfu determination.\nE. coli ATCC 25922 bacteria were grown to mid-logarithmic phase in Todd-Hewitt (TH) medium (Becton and Dickinson, Maryland, USA). The microorganisms were then washed and diluted in 10 mM Tris, pH 7.4 containing 5 mM glucose. […] To quantify the bactericidal activity, serial dilutions of the incubation mixtures were plated on TH agar, followed by incubation at 37° C. overnight and the number of colony-forming units was determined. […] Significance was determined using the statistical software SigmaStat (SPSS Inc., Chicago, Ill., USA)."}}, "data": [{"substance": "HVFRLKKWIQKVIDQFGE (HVF18) [endogenously produced C-terminal thrombin peptide]", "values": [{"measurement": "concentration completely eliminating LPS-induced NO-responses", "setting": "RAW 264.7 macrophages; RAW 264.7, 10 ng/ml LPS", "value": "much higher doses"}, {"measurement": "effect on IL-10", "setting": "RAW 264.7 cells", "value": "significant up-regulation of IL-10"}, {"measurement": "effect on cytokines at 10 μM", "setting": "RAW 264.7 cells; peptide 10 μM", "value": "not"}, {"measurement": "TNF-α production", "setting": "[1]", "value": "damped TNF-α production"}, {"measurement": "activated partial thromboplastin time (aPTT)", "setting": "human citrate plasma", "value": "significantly prolong"}, {"measurement": "prothrombin time (PT)", "setting": "human citrate plasma", "value": "not significantly affected"}, {"measurement": "thrombin clotting time (TCT)", "setting": "human citrate plasma", "value": "not significantly affected"}, {"measurement": "clotting time with LPS-stimulated monocytes (TF-mediated coagulation)", "setting": "human monocytes", "value": "less potent"}, {"measurement": "weight", "setting": "LPS-induced shock; 0.5 mg peptide, followed 7 days", "value": "full recovery of weight"}, {"measurement": "survival in LPS-induced shock", "setting": "LPS-induced shock; 18 mg/kg E. coli LPS i.p., 0.5 mg peptide 30 minutes later", "value": 100, "unit": "%"}, {"measurement": "proinflammatory IL-6, IFN-γ, TNF-α, MCP-1 in blood", "setting": "LPS-induced shock; 8 and 20 h after LPS injection, 0.5 mg peptide", "value": "significant reductions"}, {"measurement": "platelet counts", "setting": "LPS-induced shock; 8 and 20 h after LPS, 0.5 mg peptide", "value": "significantly increased platelets"}, {"measurement": "IL-10 in blood", "setting": "LPS-induced shock; 8 h after LPS injection", "value": "increase in IL-10"}]}, {"substance": "VFRLKKWIQKVI (12-mer thrombin-derived peptide) [VFR12]", "values": [{"measurement": "bactericidal potency in RDA at high salt", "setting": "E. coli; E. coli ATCC 25922, 0.15M NaCl, peptide at 100 μM", "value": "retained good bactericidal potency"}, {"measurement": "effect on NO production of LPS-stimulated macrophages", "setting": "RAW 264.7 macrophages", "value": "not able to block LPS effects"}]}, {"substance": "VFRLKKWIQKVIDQFGE (VFR17)", "values": [{"measurement": "antibacterial activity in viable count assay", "setting": "E. coli ATCC 25922", "value": "significant antibacterial activities"}]}, {"substance": "WFFFYYLIIGGGVVTHQQRKKKKDE (WFF25 peptide) [control peptide, same composition as GKY25, amino acids sorted after hydrophobicity, reference compound]", "values": [{"measurement": "effect on NO production of LPS-stimulated macrophages", "setting": "RAW 264.7 macrophages", "value": "did not show anti-inflammatory effects"}, {"measurement": "survival in LPS-induced shock", "setting": "LPS-induced shock; 500 μg i.p., followed 7 days", "value": "does not increase survival"}]}, {"substance": "thrombin", "values": [{"measurement": "antimicrobial activity of intact protein in RDA", "setting": "E. coli; E. coli, low-salt conditions, not digested with neutrophil elastase", "value": "inactive"}]}]}
